Source: ChEMBL document CHEMBL1201862, “PubChem BioAssay data set” (2004)
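Following 48 hours of exposure in 96-well plates, responses at five concentrations were used to interpolate endpoints linearly. GI50 marks 50% less growth.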 Calls of active or inactive are those of the source. No stated cut-off is given here; in the data, active = GI50 up to about 1.1 µM and inactive = higher.

Experiments:
Assay in all cases: growth of human tumour cells (NCI), 48 h
[1] = test system: A498
[2] = test system: ACHN
[3] = test system: HCC 2998
[4] = test system: HL-60
[5] = test system: IGROV-1
[6] = test system: LOX IMVI
[7] = test system: M14
[8] = test system: MOLT-4
[9] = test system: Malme-3M
[10] = test system: OVCAR-4
[11] = test system: OVCAR-5
[12] = test system: RXF 393
[13] = test system: SF-539
[14] = test system: SK-MEL-2
[15] = test system: SK-MEL-5
[16] = test system: U-251
[17] = test system: UO-31
[18] = test system: HCT-15
[19] = test system: MCF7
[20] = test system: MDA-MB-231

SMILES | GI50 [1] | GI50 [2] | GI50 [3] | GI50 [4] | GI50 [5] | GI50 [6] | GI50 [7] | GI50 [8] | GI50 [9] | GI50 [10] | GI50 [11] | GI50 [12] | GI50 [13] | GI50 [14] | GI50 [15] | GI50 [16] | GI50 [17] | GI50 [18] [µM] | GI50 [19] | GI50 [20]
C=CC[C@H](C[C@H](C[C@H](C[C@H](C[C@H](C[C@H](C[C@H](C[C@H](C[C@H](C[C@H](CCCCC)OC)OC)OC)OC)OC)OC)OC)OC)OC)OC | 85.7 µM (inactive) | > 100 µM (inactive) | > 100 µM (inactive) | 52.5 µM (inactive) | > 100 µM (inactive) | > 100 µM (inactive) | > 100 µM (inactive) | 41.8 µM (inactive) | > 100 µM (inactive) | > 100 µM (inactive) | > 100 µM (inactive) | 66.4 µM (inactive) | > 100 µM (inactive) | > 100 µM (inactive) | 52.7 µM (inactive) | > 100 µM (inactive) | 50.7 µM (inactive) |  |  | 
Cc1ccc(C)c(NC(=O)CC2C(=O)Nc3ccccc3S2(=O)=O)c1 (stereo not drawn) | 30.2 µM (inactive) | 48.2 µM (inactive) | 77.8 µM (inactive) | 49.9 µM (inactive) | 52.8 µM (inactive) | 51.3 µM (inactive) | 44.5 µM (inactive) | > 100 µM (inactive) | 31.5 µM (inactive) | 19 µM (inactive) | > 100 µM (inactive) | 27.9 µM (inactive) | 25.5 µM (inactive) | > 100 µM (inactive) | 27.7 µM (inactive) | 43.3 µM (inactive) | 49.7 µM (inactive) | 87.9 |  | 
C=CCOC(C)(C)C1=CCC(C)CC1 (stereo not drawn) | > 100 µM (inactive) | > 100 µM (inactive) | > 100 µM (inactive) | > 100 µM (inactive) | > 100 µM (inactive) |  | > 100 µM (inactive) | > 100 µM (inactive) | > 100 µM (inactive) | > 100 µM (inactive) | > 100 µM (inactive) | > 100 µM (inactive) | > 100 µM (inactive) |  | > 100 µM (inactive) | > 100 µM (inactive) | > 100 µM (inactive) | > 100 | > 100 µM (inactive) | 
COc1ccc2nccc(C3=CCC4CCN(C(=O)c5ccccc5)C3C4)c2c1 (stereo not drawn) | > 100 µM (inactive) |  | > 100 µM (inactive) | 51.6 µM (inactive) | > 100 µM (inactive) | > 100 µM (inactive) | > 100 µM (inactive) | 44.9 µM (inactive) | > 100 µM (inactive) | 81.8 µM (inactive) |  | > 100 µM (inactive) | > 100 µM (inactive) | > 100 µM (inactive) | 93.3 µM (inactive) | > 100 µM (inactive) | 40.7 µM (inactive) | > 100 |  | 
O=C1CCSCCC(=O)Nc2ccccc2N1 | > 100 µM (inactive) | > 100 µM (inactive) |  | > 100 µM (inactive) | > 100 µM (inactive) | > 100 µM (inactive) | > 100 µM (inactive) | > 100 µM (inactive) | > 100 µM (inactive) | > 100 µM (inactive) | > 100 µM (inactive) | > 100 µM (inactive) | > 100 µM (inactive) | > 100 µM (inactive) | > 100 µM (inactive) | > 100 µM (inactive) | > 100 µM (inactive) | > 100 |  | > 100 µM (inactive)
Cc1ccc(-n2c3nc(=O)n(C)c(=O)c-3nc3ccccc32)cc1 | 26.7 µM (inactive) | 3.26 µM (inactive) | 4.61 µM (inactive) | 11.1 µM (inactive) | 31.6 µM (inactive) | 20.4 µM (inactive) | 12.8 µM (inactive) | 14.9 µM (inactive) | 13.8 µM (inactive) | 14.5 µM (inactive) | 23.8 µM (inactive) | 64.9 µM (inactive) | 27.8 µM (inactive) | 14.6 µM (inactive) | 13.4 µM (inactive) | 15.1 µM (inactive) | 40.2 µM (inactive) | 8.18 |  | 
N[C@H](COCc1ccccc1)c1ccccc1 | 32.4 µM (inactive) | 31.5 µM (inactive) | 29.9 µM (inactive) | 11.9 µM (inactive) | 39 µM (inactive) | 29.3 µM (inactive) | 23.1 µM (inactive) | 16.7 µM (inactive) | 33.4 µM (inactive) | 20.7 µM (inactive) | 24.9 µM (inactive) | 27.3 µM (inactive) | 27.9 µM (inactive) | 21.1 µM (inactive) | 20.1 µM (inactive) | > 56 µM (inactive) | 30.3 µM (inactive) | > 50.5 |  | 
Cc1nc(-n2nc(-c3ccccc3)cc2-c2ccccc2)sc1C(=O)CC(=O)C(=O)Nc1ccc(O)cc1 | > 100 µM (inactive) | > 100 µM (inactive) | > 100 µM (inactive) | > 100 µM (inactive) | > 100 µM (inactive) | > 100 µM (inactive) | > 100 µM (inactive) | > 100 µM (inactive) | > 100 µM (inactive) | > 100 µM (inactive) | > 100 µM (inactive) | > 100 µM (inactive) | > 100 µM (inactive) | > 100 µM (inactive) |  | > 100 µM (inactive) | > 100 µM (inactive) | > 100 |  | 
CNCc1cc(OC)ccc1-c1ccc(OC)c(OC)c1OC | > 100 µM (inactive) | > 100 µM (inactive) | > 88.7 µM (inactive) | 48.1 µM (inactive) | > 100 µM (inactive) | > 96.8 µM (inactive) | > 100 µM (inactive) | 99.3 µM (inactive) | > 100 µM (inactive) | > 80.9 µM (inactive) | > 100 µM (inactive) | 69.7 µM (inactive) | > 100 µM (inactive) | > 100 µM (inactive) | 64.3 µM (inactive) | > 100 µM (inactive) | > 88.1 µM (inactive) | > 100 |  | 
COc1ccc2[nH]c3c(C)c4c(c(C)c3c2c1)CN(C)CC4 | 17.9 µM (inactive) | 18.8 µM (inactive) | 16.9 µM (inactive) | 2.09 µM (inactive) | 16.6 µM (inactive) | 13.7 µM (inactive) | 16.3 µM (inactive) | 18.5 µM (inactive) | 19.8 µM (inactive) | 19 µM (inactive) | 23.7 µM (inactive) | 19.3 µM (inactive) | 16 µM (inactive) | 17.2 µM (inactive) | 17.5 µM (inactive) | 17.7 µM (inactive) | 16.4 µM (inactive) | 16.1 |  | 
Nc1nc(OCc2ccccc2)c2nc[nH]c2n1 [6-O-BENZYLGUANINE] | 57.8 µM (inactive) | 47.4 µM (inactive) | 148 µM (inactive) | 45.7 µM (inactive) | 64.6 µM (inactive) | 64.6 µM (inactive) | 75.9 µM (inactive) | 67.6 µM (inactive) | 87.9 µM (inactive) | 69.8 µM (inactive) | 80 µM (inactive) | 32.5 µM (inactive) | 91.4 µM (inactive) | 68.9 µM (inactive) | 81.1 µM (inactive) | 87.7 µM (inactive) | 25.9 µM (inactive) | 57.1 |  | 
O=C1c2ccccc2C(=O)c2c(O)c(NCCNCCO)cc(O)c21 | 7.26 µM (inactive) | 2.17 µM (inactive) | 3.78 µM (inactive) | 4.69 µM (inactive) | 1.91 µM (inactive) | 3.73 µM (inactive) | 4.42 µM (inactive) | 3.02 µM (inactive) | 12.1 µM (inactive) | 2.99 µM (inactive) | 10.2 µM (inactive) | 4.74 µM (inactive) | 4.93 µM (inactive) | 5.07 µM (inactive) | 3.44 µM (inactive) |  | 2.96 µM (inactive) | 3.64 |  | 
CC1(C)CC(=O)C=C(NC(=O)c2ccccc2)C1 | > 100 µM (inactive) |  | > 100 µM (inactive) | > 100 µM (inactive) | > 100 µM (inactive) | > 100 µM (inactive) | > 100 µM (inactive) | > 100 µM (inactive) | > 100 µM (inactive) | > 100 µM (inactive) |  | > 100 µM (inactive) | > 100 µM (inactive) | > 100 µM (inactive) | > 100 µM (inactive) | > 100 µM (inactive) | > 100 µM (inactive) | > 100 |  | 
CCc1cccc(C(C)C)c1NC(=O)C(=O)C(Cc1nc2ccccc2nc1O)C(=O)OC (stereo not drawn) | > 100 µM (inactive) | > 100 µM (inactive) | > 100 µM (inactive) | > 100 µM (inactive) | > 100 µM (inactive) | 45 µM (inactive) | > 100 µM (inactive) | > 100 µM (inactive) | > 100 µM (inactive) | > 100 µM (inactive) | > 100 µM (inactive) | > 100 µM (inactive) | > 100 µM (inactive) | > 100 µM (inactive) | > 100 µM (inactive) | > 100 µM (inactive) | > 100 µM (inactive) | > 100 |  | 
Cc1ccc(S(=O)(=O)Nc2ccccc2C(C)(C)C)cc1 | 24 µM (inactive) | 28.1 µM (inactive) | 42.8 µM (inactive) | 16.8 µM (inactive) | 30.7 µM (inactive) |  | > 10 µM (inactive) | 20.9 µM (inactive) | 30.6 µM (inactive) | 25.6 µM (inactive) | 34.6 µM (inactive) | 6.31 µM (inactive) | 17.3 µM (inactive) | 26.7 µM (inactive) | 15.2 µM (inactive) | 20.6 µM (inactive) | 18.6 µM (inactive) | 20.7 |  | 
CCCSc1ccc2[nH]c(N3C(=O)/C(=C/c4ccc(O)c(OC)c4)N=C3c3ccccc3)cc2c1 | 6.35 µM (inactive) | 25.2 µM (inactive) | 2.8 µM (inactive) | 2.82 µM (inactive) | 4.2 µM (inactive) | 7.14 µM (inactive) | 3.58 µM (inactive) | 4.23 µM (inactive) | 2.98 µM (inactive) |  | 4.07 µM (inactive) | 18.8 µM (inactive) | 4.88 µM (inactive) | 0.0775 µM (active) | 4.51 µM (inactive) |  | 12.8 µM (inactive) | 4.43 | 2.94 µM (inactive) | 
